How the values were obtained:
human CD34+ cells [1] = assay: Four hour homing of human CD34+ cells to the CCl4-injured liver of NOD/SCID mice; type: in vivo; conditions: non-irradiated NOD/SCID mice, 15 μl CCl4 24 hours prior, four hour assay
Description: (§1) Liver injury—Mice were injected intraperitoneally (IP) with 10, 15 or 30 μl/mouse of CCl4 and liver samples were collected within a few hours, or 1-2 days following injection, as indicated. In homing assays, mice were intraveneously (IV) transplanted with human MPB CD34^+ cells (0.6×10^6 cells/mouse) 4 hours prior to liver collection. Homing was blocked by preincubation of transplanted cells with 10 μg of anti CXCR4/mouse or by IP injection of 100 μg/mouse of a specific MMP2/9 inhibitor III (CalBiochem, catalogue #444251). Human progenitors in the blood circulation of engrafted mice transplanted a month before with human CB MNC (20×10^6 cells/mouse) were quantified by seeding 2×10^5 mononuclear cells/ml in colony forming unit assay as described [Kollet (2001) Blood 97:3283-3291]. CXCR4 expression was determined by flow cytometry.

CXCR4 [2] = assay: Human CXCR4 staining of peripheral blood MNC of chimeric mice, flow cytometry; type: in vivo; conditions: CCl4 treated chimeric mice
Description: as §1

[3] = test system: human colony forming progenitors; assay: Human progenitors in blood circulation of engrafted mice, colony forming unit assay; type: in vivo; conditions: engrafted NOD/SCID mice, one day after single injection of 10 μl CCl4
Description: Data summarize three independent experiments.
as §1

MMP-2/9 = assay: Zymography assay of MMP-2/9 activity in liver of CCl4 injected mice; type: in vivo; conditions: CCl4 treated NOD/SCID mice
human CD34+ cells [4] = assay: Four hour homing of CD34+ cells to the liver of non-irradiated mice, local hepatic injection of human SDF-1; type: in vivo; conditions: non-irradiated NOD/SCID, human SDF-1 injected into hepatic parenchyma, IV infusion of cells
Description: FIG. 1a is a histogram showing inhibition of homing of human CB or MPB enriched CD34^+ cells to the murine BM, spleen and liver by neutralizing CXCR4 antibodies. Data presents inhibition as percentage of control. P≦0.008, comparing anti CXCR4 treated samples to control counterparts. […] Human SDF-1 was injected to the liver parenchyma as indicated. Cells were collected from the injected lobe to determine the homing of human CD34^+ cells.
Mice—NOD/SCID mice were bred and housed as previously described [Kollet (2001) Blood 97:3283-3291]. All experiments were approved by the animal care committee of the Weizmann Institute. Mice were sublethally irradiated (i.e., 375 cGy) as indicated, 24 hours prior to transplantation. Non-irradiated mice were used when local hepatic injection of SDF-1 was effected.
CXCR4 neutralization—Human CD34^+ cells were pre-incubated with anti human CXCR4 neutralizing mAb (10 μg/0.5×10^6 cells, 12G5, R&D) and were injected (0.5-0.6×10^6 CD34^+ cells per mouse) into the tail vein without washing. Mice were killed 4 hours, 16 hours, or 5-6 weeks following cell transplantation as indicated. Single cell suspensions of liver tissues were washed thoroughly with PBS. Homing of human cells was determined as described [Kollet (2001) Blood 97:3283-3291], acquiring 1.5×10^6 cells/sample.

CXCR4 [5] = assay: Surface CXCR4 expression on CD34+ cells by FACS; type: cell-based, human; conditions: CB CD34+ cells, 5 hours incubation
Description: CB CD34^+ cells were incubated for 5 hours with RPMI growth medium and HT1080 conditioned medium. Cells were stained with isotype control antibody as a negative control (Isot), or with CXCR4 antibody. Representative data of 3 experiments is shown.
Human cells—Cord blood (CB) cells and adult mobilized peripheral blood (MPB) cells were obtained after informed consent in accordance with procedures approved by the human ethics committee of the Weizmann Institute. CD34^+ cell enrichment was effected using magnetic bead separation as previously described [Kollet (2001) Blood 97:3283-3291]. CXCR4 expression was determined by flow cytometry using purified anti human CXCR4 (clone 12G5, R&D, Minneapolis, Minn.) and secondary F(ab′)2 fragment of goat anti mouse IgG FITC (Jackson, West Grove, Pa.).

## ClC(Cl)(Cl)Cl [CCl4, Carbon tetrachloride]
Human CD34+ cells [1]
  homing of human CD34+ cells to the injured liver: rapidly induced homing
CXCR4 [2]
  CXCR4 expression on human MNC cells in the circulation: increased level of CXCR4 expression
[3]
  recruitment of human colony forming progenitors from bone marrow to the circulation: induced the recruitment
MMP-2/9
  MMP-9 expression in the liver: emergence of MMP-9 expression
  activity of MMP-2 in the liver: increased activity

## SDF-1: chemokine stromal derived factor, ligand of CXCR4
Human CD34+ cells [4]
  homing of CD34+ progenitors to the liver: increased the homing

B1: purified MMP-2: purified recombinant MMP-2 (protein, UniProt P08253 110-660, looked up)
72 kDa type IV collagenase: YNFFPRKPKWDKNQITYRIIGYTPDLDPETVDDAFARAFQVWSDVTPLRFSRIHDGEADIMINFGRWEHGDGYPFDGKDGLLAHAFAPGTGVGGDSHFDDDELWTLGEGQVVRVKYGNADGEYCKFPFLFNGKEYNSCTDTGRSDGFLWCSTTYNFEKDGKYGFCPHEALFTMGGNAEGQPCKFPFRFQGTSYDSCTTEGRTDGYRWCGTTEDYDRDKKYGFCPETAMSTVGGNSEGAPCVFPFTFLGNKYESCTSAGRSDGKMWCATTANYDDDRKWGFCPDQGYSLFLVAAHEFGHAMGLEHSQDPGALMAPIYTYTKNFRLSQDDIKGIQELYGASPDIDLGTGPTPTLGPVTPEICKQDIVFDGIAQIRGEIFFFKDRFIWRTVTPRDKPMGPLLVATFWPELPEKIDAVYEAPQEEKAVFFAGNEYWIYSASTLERGYPKPLTSLGLPPDVQRVDAAFNWSKNKKTYIFAGDKFWRYNEVKKKMDPGFPKLIADAWNAIPDNLDAVVDLQGGGHSYFFKGAYYLKLENQSLKSVKFGSIKSDWLGC
CXCR4 [5]
  surface CXCR4 expression on enriched human CD34+ cells: upregulation of CXCR4
